# Measured values: PubChem BioAssay (NCI)
#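 In this assay, cells in 96-well plates receive the compound at five concentrations for 48 hours. Endpoints are linearly interpolated between the surrounding concentrations. GI50 = concentration required for 50% inhibition of growth. TGI: concentration producing complete growth inhibition.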
# What was measured:
# Assay in all cases: inhibition of tumour cell growth, NCI panel, 48 h
# A498 renal = system: A498 renal
# EKVX NSCLC = system: EKVX NSCLC
# HCC-2998 colon = system: HCC-2998 colon
# HOP-62 NSCLC = system: HOP-62 NSCLC
# HT29 colon = system: HT29 colon
# K-562 leukemia = system: K-562 leukemia
# MALME-3M melanoma = system: MALME-3M melanoma
# NCI-H460 lung = system: NCI-H460 lung
# NCI/ADR-RES ovarian = system: NCI/ADR-RES ovarian
# OVCAR-8 ovarian = system: OVCAR-8 ovarian
# SF-268 CNS = system: SF-268 CNS
# SF-295 CNS = system: SF-295 CNS
# SK-MEL-28 melanoma = system: SK-MEL-28 melanoma
# SK-MEL-5 melanoma = system: SK-MEL-5 melanoma
# T-47D breast = system: T-47D breast
# BT-549 breast = system: BT-549 breast
compound,measurement,setting,value
NS(=O)(=O)c1ccc(/C=C/c2cccc(O)c2)cc1,TGI,A498 renal,> 100 µM
same,TGI,EKVX NSCLC,> 100 µM
same,TGI,HCC-2998 colon,> 100 µM
same,TGI,HOP-62 NSCLC,> 100 µM
same,GI50,HT29 colon,43.3 µM
same,TGI,HT29 colon,> 100 µM
same,GI50,K-562 leukemia,43.4 µM
same,TGI,K-562 leukemia,> 100 µM
same,TGI,MALME-3M melanoma,> 100 µM
same,TGI,NCI-H460 lung,> 100 µM
same,TGI,NCI/ADR-RES ovarian,> 100 µM
same,GI50,OVCAR-8 ovarian,25.2 µM
same,TGI,OVCAR-8 ovarian,58.7 µM
same,GI50,SF-268 CNS,65.6 µM
same,TGI,SF-268 CNS,> 100 µM
same,TGI,SF-295 CNS,> 100 µM
same,TGI,SK-MEL-28 melanoma,> 100 µM
same,TGI,SK-MEL-5 melanoma,48.4 µM
same,TGI,T-47D breast,87.4 µM
CC1=C2N3C[C@@H](n4c(=O)n(C)c(=O)n43)C23CCC1n1c(=O)n(C)c(=O)n13,TGI,A498 renal,> 100 µM
same,TGI,EKVX NSCLC,> 100 µM
same,TGI,HCC-2998 colon,> 100 µM
same,TGI,HOP-62 NSCLC,> 100 µM
same,TGI,HT29 colon,> 100 µM
same,TGI,K-562 leukemia,> 100 µM
same,TGI,MALME-3M melanoma,> 100 µM
same,TGI,NCI-H460 lung,> 100 µM
same,TGI,OVCAR-8 ovarian,> 100 µM
same,TGI,SF-268 CNS,> 100 µM
same,TGI,SF-295 CNS,> 100 µM
same,TGI,SK-MEL-28 melanoma,> 100 µM
same,TGI,SK-MEL-5 melanoma,> 100 µM
CC1(C)CCOC(=O)C(Cl)CC1Cl (stereo unspecified),TGI,A498 renal,> 100 µM
same,TGI,EKVX NSCLC,> 100 µM
same,TGI,HCC-2998 colon,> 100 µM
same,TGI,HOP-62 NSCLC,> 100 µM
same,TGI,HT29 colon,> 100 µM
same,TGI,K-562 leukemia,> 100 µM
same,TGI,MALME-3M melanoma,> 100 µM
same,TGI,NCI-H460 lung,> 100 µM
same,TGI,NCI/ADR-RES ovarian,> 100 µM
same,TGI,OVCAR-8 ovarian,> 100 µM
same,TGI,SF-268 CNS,> 100 µM
same,TGI,SF-295 CNS,> 100 µM
same,TGI,SK-MEL-28 melanoma,> 100 µM
same,TGI,SK-MEL-5 melanoma,> 100 µM
same,TGI,T-47D breast,> 100 µM
COc1cc(C(C#N)NNC(=O)c2ccccc2O)ccc1O (stereo unspecified),TGI,HOP-62 NSCLC,> 100 µM
same,TGI,HT29 colon,> 100 µM
same,TGI,K-562 leukemia,> 100 µM
same,TGI,MALME-3M melanoma,> 100 µM
same,TGI,NCI-H460 lung,> 100 µM
same,TGI,OVCAR-8 ovarian,> 100 µM
same,TGI,SF-268 CNS,> 100 µM
same,TGI,SF-295 CNS,> 100 µM
same,TGI,SK-MEL-28 melanoma,> 100 µM
same,TGI,SK-MEL-5 melanoma,> 100 µM
C/C(=N/O)c1cccc(Nc2nc3ccccc3c3[nH]c4ccccc4c23)c1,TGI,BT-549 breast,34.7 µM
same,TGI,EKVX NSCLC,7.38 µM
same,TGI,HOP-62 NSCLC,8.83 µM
same,TGI,HT29 colon,6.51 µM
same,TGI,K-562 leukemia,10.6 µM
same,TGI,MALME-3M melanoma,13.8 µM
same,TGI,NCI-H460 lung,4.74 µM
same,TGI,NCI/ADR-RES ovarian,20 µM
same,TGI,OVCAR-8 ovarian,> 24.4 µM
same,TGI,SF-268 CNS,6.24 µM
same,TGI,SF-295 CNS,5.58 µM
same,TGI,SK-MEL-28 melanoma,12.4 µM
same,TGI,SK-MEL-5 melanoma,4.08 µM
same,TGI,T-47D breast,3.82 µM
CCCc1ccc(N=Cc2cc(OC)c(OC)c(OC)c2)cc1,TGI,A498 renal,> 100 µM
same,TGI,EKVX NSCLC,> 100 µM
same,TGI,HOP-62 NSCLC,> 100 µM
same,TGI,HT29 colon,> 100 µM
same,TGI,K-562 leukemia,> 72.6 µM
same,TGI,MALME-3M melanoma,> 100 µM
same,TGI,NCI-H460 lung,> 100 µM
same,TGI,OVCAR-8 ovarian,> 100 µM
same,TGI,SF-268 CNS,> 100 µM
same,TGI,SF-295 CNS,> 100 µM
same,TGI,SK-MEL-28 melanoma,> 100 µM
same,TGI,SK-MEL-5 melanoma,> 100 µM
O=C(CSc1nc2ccc(I)cc2c(=O)n1Cc1ccccc1)Nc1ccc(Br)cc1,TGI,A498 renal,68.1 µM
same,TGI,BT-549 breast,> 100 µM
same,TGI,EKVX NSCLC,38.9 µM
same,TGI,HOP-62 NSCLC,> 100 µM
same,TGI,HT29 colon,> 100 µM
same,TGI,K-562 leukemia,> 100 µM
same,TGI,MALME-3M melanoma,61.6 µM
same,TGI,NCI/ADR-RES ovarian,> 100 µM
same,TGI,OVCAR-8 ovarian,36.2 µM
same,TGI,SF-268 CNS,28 µM
same,TGI,SF-295 CNS,> 100 µM
same,TGI,SK-MEL-28 melanoma,> 100 µM
same,TGI,SK-MEL-5 melanoma,> 100 µM
same,TGI,T-47D breast,> 100 µM
O=S1(=O)c2ccccc2N2CCCc3cc(Cl)cc1c32,TGI,A498 renal,> 100 µM
same,TGI,BT-549 breast,> 100 µM
same,TGI,EKVX NSCLC,> 100 µM
same,TGI,HCC-2998 colon,> 100 µM
same,TGI,HOP-62 NSCLC,> 100 µM
same,TGI,HT29 colon,> 100 µM
same,TGI,K-562 leukemia,> 100 µM
same,TGI,MALME-3M melanoma,> 100 µM
same,TGI,NCI-H460 lung,> 100 µM
same,TGI,NCI/ADR-RES ovarian,> 100 µM
same,TGI,OVCAR-8 ovarian,> 100 µM
same,TGI,SF-268 CNS,> 100 µM
same,TGI,SF-295 CNS,95 µM
same,TGI,SK-MEL-28 melanoma,> 100 µM
same,TGI,SK-MEL-5 melanoma,> 100 µM
Cc1cc2ccccc2c[n+]1CC(=O)CC([O-])(C(F)(F)F)C(F)(F)F,TGI,A498 renal,> 100 µM
same,TGI,EKVX NSCLC,> 100 µM
same,TGI,HCC-2998 colon,> 100 µM
same,TGI,HOP-62 NSCLC,> 100 µM
same,TGI,HT29 colon,> 100 µM
same,TGI,K-562 leukemia,> 100 µM
same,TGI,MALME-3M melanoma,> 100 µM
same,TGI,NCI-H460 lung,> 100 µM
same,TGI,NCI/ADR-RES ovarian,> 100 µM
same,TGI,OVCAR-8 ovarian,> 100 µM
same,TGI,SF-268 CNS,> 100 µM
same,TGI,SF-295 CNS,> 100 µM
same,TGI,SK-MEL-28 melanoma,> 100 µM
same,TGI,SK-MEL-5 melanoma,> 100 µM
same,TGI,T-47D breast,> 100 µM
CN(C)CCCOC(=O)C(O)(Cc1ccccc1)C1CC1 (stereo unspecified),TGI,A498 renal,> 100 µM
same,TGI,EKVX NSCLC,> 100 µM
same,TGI,HCC-2998 colon,> 100 µM
same,TGI,HOP-62 NSCLC,> 100 µM
same,TGI,HT29 colon,> 100 µM
same,TGI,K-562 leukemia,> 100 µM
same,TGI,MALME-3M melanoma,> 100 µM
same,TGI,NCI-H460 lung,> 100 µM
same,TGI,NCI/ADR-RES ovarian,> 100 µM
same,TGI,OVCAR-8 ovarian,> 100 µM
same,TGI,SF-268 CNS,> 100 µM
same,TGI,SF-295 CNS,> 100 µM
same,TGI,SK-MEL-28 melanoma,> 100 µM
same,TGI,SK-MEL-5 melanoma,> 100 µM
same,TGI,T-47D breast,> 100 µM
CC(=O)C(=C(I)I)c1ccccc1,TGI,A498 renal,40.7 µM
same,TGI,EKVX NSCLC,49.3 µM
same,TGI,HCC-2998 colon,72 µM
same,TGI,HOP-62 NSCLC,38.7 µM
same,TGI,HT29 colon,35.2 µM
same,TGI,K-562 leukemia,53.5 µM
same,TGI,MALME-3M melanoma,25.6 µM
same,TGI,NCI-H460 lung,> 100 µM
same,TGI,NCI/ADR-RES ovarian,49 µM
same,TGI,OVCAR-8 ovarian,39.6 µM
same,TGI,SF-268 CNS,52.6 µM
same,TGI,SF-295 CNS,50.1 µM
same,TGI,SK-MEL-28 melanoma,38.7 µM
same,TGI,SK-MEL-5 melanoma,28.5 µM
same,TGI,T-47D breast,50.4 µM
O=C1CC(c2cccc(Cl)c2)n2cccc21 (stereo unspecified),TGI,A498 renal,> 100 µM
same,TGI,HCC-2998 colon,> 100 µM
same,TGI,HOP-62 NSCLC,> 100 µM
same,TGI,HT29 colon,> 100 µM
same,TGI,K-562 leukemia,> 100 µM
same,TGI,NCI/ADR-RES ovarian,> 100 µM
same,TGI,OVCAR-8 ovarian,> 100 µM
same,TGI,SF-268 CNS,> 100 µM
same,TGI,SF-295 CNS,> 100 µM
same,TGI,SK-MEL-28 melanoma,> 100 µM
same,TGI,T-47D breast,> 100 µM
CC(NC(=O)c1ccc(OP(=O)(OCC2=CC(=O)c3ccccc3C2=O)N(C)CCCCCl)cc1)c1ccc(OCC2CCCCC2)c(C(N)=O)c1 (stereo unspecified),TGI,HCC-2998 colon,4.05 µM
same,TGI,HOP-62 NSCLC,32.9 µM
same,TGI,HT29 colon,31.2 µM
same,TGI,K-562 leukemia,43.1 µM
same,TGI,MALME-3M melanoma,3.97 µM
same,TGI,NCI-H460 lung,22.9 µM
same,TGI,NCI/ADR-RES ovarian,32.5 µM
same,TGI,OVCAR-8 ovarian,29.6 µM
same,TGI,SF-268 CNS,26.2 µM
same,TGI,SF-295 CNS,19.2 µM
same,TGI,SK-MEL-28 melanoma,27.2 µM
same,TGI,SK-MEL-5 melanoma,2.02 µM
same,TGI,T-47D breast,10.5 µM
